# Measurements reported in EP2927230A1, “PENTAMETHINIUM SALTS WITH AN EXPANDED QUINOXALINE UNIT AND ITS USE IN ANTICANCER THERAPY” (University of Chemistry and Technology - Prague, priority 2014, dated 2015).
# Key:
# [1] = tested on: 4T1(mouse mammary gland carcinoma); experiment: Cytotoxicity (MTT) assay; type: cell-based; conditions: 4T1 cell line
# Procedure: (§1) Cells were seeded into 96-well microtitre plates to the expected target cell density (2,500-30,000 cells-well^-1, according to the particular cell line). The inoculant were pre-incubated to stabilize for 24 h (at 37°C and 5 % CO^2). Fourfold dilutions (0-200 µmol·L^-1; in triplicates) of the tested compound 1 were added to the microtitre plate wells at time zero. The cells were treated with compound 1 for 72 h under standard cultivation conditions. Then, the cells were assayed using MTT for 4 h. Produced formazan, arisen by mitochondrial reduction of MTT, was dissolved in 10 % aqueous solution of sodium dodecyl sulphate (pH 5.5; 100 µL·well^-1, hole diameter is 6.54 mm) followed by overnight incubation. […] The absorption of the produced formazan was measured at 540 nm using Labsystem iEMS Reader MF. The tumor cell inhibitory concentration (IC) of compound 1 was calculated using the following equation: IC = (ODdrug / mean ODcontrol) · 100 %. The IC50 (Table 1) value (drug concentration being lethal for 50 % of the cells) was calculated from appropriate dose-response curves. (Noskova, V.; Dz ? ubak, P.; Kuzmina, G.; Ludkova, A.; Stehlik, D.; Trojanec, R.; Jano ? akova, A.; Kor ? inkova, G.; Mihal, V.; Hajduch, M. Neoplasma 2002, 49, 418-425. 38. Hajduch, M.; Mihal, V.; Minar ? ik, J.; Faber, E.; ? afarova, M.; Weigl, E.; Antalek, P. Cytotechnology 1996, 19, 243-245)
# [2] = tested on: LNCaP (human prostate carcinoma); experiment: Cytotoxicity (MTT) assay; type: cell-based; conditions: LNCaP cell line
# Procedure: as §1
# [3] = tested on: MCF-7 (breast cancer cells); experiment: Cytotoxicity (MTT) assay; type: cell-based; conditions: MCF-7 cell line
# Procedure: as §1
# [4] = tested on: MDA-MB-231 (human breast carcinoma); experiment: Cytotoxicity (MTT) assay; type: cell-based; conditions: MDA-MB-231 cell line
# Procedure: as §1
# [5] = tested on: MiaPaCa-2 (human pancreatic carcinoma); experiment: Cytotoxicity (MTT) assay; type: cell-based; conditions: MiaPaCa-2 cell line
# Procedure: as §1
# [6] = tested on: PE/CA-PJ34 (human basaloid squamous cell carcinoma); experiment: Cytotoxicity (MTT) assay; type: cell-based; conditions: PE/CA-PJ34 cell line
# Procedure: as §1
# [7] = tested on: U-2 OS (human osteosarcoma); experiment: Cytotoxicity (MTT) assay; type: cell-based; conditions: U-2 OS cell line
# Procedure: as §1
# [8] = tested on: human breast carcinoma (MDA-MB-231); experiment: Effect on tumor growth in vivo (subcutaneous xenograft); set-up: species or system Nu/nu mice
# Source text: Effect of salt 1 on tumor growth in vivo. […] The control group (◆) consisted of untreated mice with a tumor.
structure (smiles),measurement,setting,value
CCCN1C(=C2C=C(C=Cc3sc4ccccc4[n+]3CCC)c3nc4ccccc4nc32)Sc2ccccc21 [compound 1],cytotoxicity,[1],high cytotoxicity
same,cytotoxicity,[2],high cytotoxicity
same,cytotoxicity,[3],high cytotoxicity
same,cytotoxicity,[4],high cytotoxicity
same,cytotoxicity,[5],high cytotoxicity
same,cytotoxicity,[6],high cytotoxicity
same,cytotoxicity,[7],high cytotoxicity
same,tumor growth,"[8]; Nu/nu mice with MDA-MB-231, after application, for the duration of the experiment (more than 40 days)",practically stopped
same,anticancer effect,[8]; Nu/nu mice with human breast carcinoma (MDA-MB-231),high anticancer effect
same,differences in the tumor volume of control mice versus treated mice,"[8]; intravenously, 5 mgkg-1, twice a week, * p<0.05, ** p<0.01, n=5 mice per group",Statistically significant differences
